Patent US20060069132A1, “Azolecarboxamide herbicides” (priority 2004, published 2006)

Columns and labels:
Assay in all cases: Test B flooded paddy test
rice = format: in vivo, Oryza sativa; conditions: Oryza sativa, 336 h, scale 0 to 100 (0 no effect, 100 complete control), read-out: Rice plant response rating
In short: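 Each value is a visual 0–100 response rating taken against controls 13 to 15 days after treatment in the greenhouse. Plants received formulated chemical postemergence at the 1- to 4-leaf stage or, in flooded paddy, at the 2-leaf stage.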

[1] = system: small flower umbrella sedge; format: in vivo, Cyperus difformis; conditions: Cyperus difformis, 336 h, scale 0 to 100 (0 no effect, 100 complete control), read-out: Sedge, Umbrella plant response rating
In short: (§1)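 Plants grow to 1- to 4-leaf stage (2–18 cm) for postemergence spraying, or to 2-leaf stage for the paddy test. Formulated compound is applied. Greenhouse holding lasts 13–15 days. Response is scored visually relative to controls, 0 no effect to 100 complete control; a dash means no result.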

ducksalad = format: in vivo, Heteranthera limosa; conditions: Heteranthera limosa, 336 h, scale 0 to 100 (0 no effect, 100 complete control), read-out: Ducksalad plant response rating
In short: as §1

barnyardgrass = format: in vivo, Echinochloa crus-galli; conditions: Echinochloa crus-galli, 336 h, scale 0 to 100 (0 no effect, 100 complete control), read-out: Barnyardgrass plant response rating
In short: as §1

For CCNC(=O)c1cccc(NC(=O)c2nc(C(C)(C)C)nn2CC)c1 [Compound 446, 3-(1,1-dimethylethyl)-1-ethyl-N-[3-[(ethylamino)carbonyl]phenyl]-1H-1,2,4-triazole-5-carboxamide], which plant injury at 125 g/ha (rice; 125 g ai/ha) is on record?
The plant injury at 125 g/ha was 80%.

What about the plant injury at 500 g/ha (rice; 500 g ai/ha) of the same molecule?
The plant injury at 500 g/ha was 90%.

What about the pest or weed control at 125 g/ha ([1]; 125 g ai/ha) of the same molecule?
The pest or weed control at 125 g/ha was 90%.

And the pest or weed control at 500 g/ha ([1]; 500 g ai/ha)?
Its pest or weed control at 500 g/ha is 90%.

What about the pest or weed control at 125 g/ha (ducksalad; 125 g ai/ha) of the same molecule?
The pest or weed control at 125 g/ha was 70%.

And the pest or weed control at 500 g/ha (ducksalad; 500 g ai/ha)?
The pest or weed control at 500 g/ha was 80%.

And the pest or weed control at 125 g/ha (barnyardgrass; 125 g ai/ha)?
Its pest or weed control at 125 g/ha is 70%.

What about the pest or weed control at 500 g/ha (barnyardgrass; 500 g ai/ha) of the same molecule?
Its pest or weed control at 500 g/ha is 90%.
